We go through one compound from paper PMC9527238, “Glutamate and GABAA receptor crosstalk mediates homeostatic regulation of neuronal excitation in the mammalian brain” (Signal Transduction and Targeted Therapy, 2022).

Format in all cases: cell-based
One assay deals with T1, α1β2γ2R197E GABAAR (Rattus norvegicus, UniProt P18508+P62813+P63138, R235E).
T1 construct: expressed in transfected cells; host or cells: HEK293
The assay is described as follows: Patch clamp, HEK293, mutant GABAAR. The procedure: However, for the GABAAR containing only α and β subunits, there are two α^+/β^− interfaces, with potentially two glutamate-binding pockets (Fig. 5a; Right).
(§1) HEK293 cells were cultured in DMEM (Invitrogen) supplemented with 10% fetal bovine serum. Cells were grown to 40–60% confluence and transiently transfected using Lipofectamine 2000 (Invitrogen) with 1:0.5–1 plasmid/lipid ratio. Cells were transfected with a pBK-CMV expression vector containing a rat recombinant GABAAR α, β or γ subunits. Co-transections were done with a plasmid ratio of 1:1 αβ and 2:2:1 for αβγ subunit combinations, respectively. pcDNA3.1-GFP was also co-transfected along with GABAAR subunits as a transfected marker in order to facilitate the visualization of the transfected cells during electrophysiological experiments. Cells were re-plated on glass coverslips after 15–20 h transfection and were cultured for an additional 15–24 h before whole-cell patch-clamp recordings.
(§2) The site-directed mutagenesis of α, β or γ subunits were performed by using the QuikChange method (Stratagene). […] Wild-type or mutant subunits were transfected in HEK293 cells and subjected to electrophysiology examinations.
(§3) Whole-cell patch-clamp recordings were performed under voltage-clamp mode using an Axopatch 200B or 1D patch-clamp amplifier (Molecular Devices) on HEK293 cells and cultured neurons. Whole-cell currents were recorded at a holding potential of −60 mV, and signals were filtered at 2 kHz, digitized at 10 kHz (Digidata 1322 A). Recording pipettes (3–5 MΩ) were filled with the intracellular solution that contained (mM): CsCl 140, HEPES 10, Mg-ATP 4, QX-314 5, pH 7.20; osmolarity, 290–295 mOsm. BAPTA (10 mM) was added in the intracellular solution. The coverslips were continuously superfused with the extracellular solution containing (mM): NaCl 140, KCl 5.4, HEPES 10, MgCl2 1.0, CaCl2 1.3, glucose 20, pH 7.4; osmolarity, 305–315 mOsm. […] Dose–response curves were created by fitting data to Hill equation: I = Imax/[1 + (EC50/[A])^n], where I is the current, Imax is the maximum current, [A] is a given concentration of agonist, n is the Hill coefficient. […] All experiments were performed at room temperature.

The next assay has as its target T2, rat α1β2γ2 GABAARs (Rattus norvegicus, UniProt P62813+P63138).
T2 construct: expressed in transfected cells; host or cells: HEK293
Description: Whole-cell patch clamp of GABA-evoked currents, HEK293 cells expressing wild-type α1β2γ2. How it is done: Co-expression of the α and β subunits is the minimum requirement for a functional recombinant GABAAR expressed in a heterologous cell line such as HEK293, while co-expression of the α, β and γ subunits is required for the recombinant receptor with a full pharmacological profile.[2] We therefore transiently expressed either rat α1β2 or α1β2γ2 subunits in HEK293 cells.
as §1, §3

The target in the next assay is T3, αβE181G GABAAR (Rattus norvegicus, UniProt P62813+P63138, E206G).
T3 construct: expressed in transfected cells; host or cells: HEK293
Description: Patch clamp, HEK293, mutant α1β2 GABAAR. Particulars: HEK293, read-out: Glutamate potentiation of GABA currents, % of control, normalized to wild-type α1β2. How it is done:
(§4) The subunits are color-coded individually. The boxed regions are further enlarged in the middle panels, highlighting the predicted glutamate binding pocket in the α+ and β− interface, just below the loop C. […] Relative potentiation was obtained by normalizing potentiation observed in the mutated receptor to that in the respective wild-type receptor.
as §1, §2, §3

The next assay concerns the target T4, αE137Gβ GABAAR (Rattus norvegicus, UniProt P62813+P63138, E164G).
T4 construct: expressed in transfected cells; host or cells: HEK293
The assay is described as follows: Patch clamp, HEK293, mutant α1β2 GABAAR. Particulars: HEK293, read-out: Glutamate potentiation of GABA currents, % of control, normalized to wild-type α1β2. The procedure:
as §4, §1, §2, §3

The target of the next assay is T5, αK104Dβ GABAAR (Rattus norvegicus, UniProt P62813+P63138, K131D).
T5 construct: expressed in transfected cells; host or cells: HEK293
Description: Patch clamp, HEK293, mutant α1β2 GABAAR. To be noted: HEK293, read-out: Glutamate potentiation of GABA currents, % of control, normalized to wild-type α1β2. The procedure:
as §4, §1, §2, §3

The next assay concerns the target T6, αK155Dβ GABAAR (Rattus norvegicus, UniProt P62813+P63138, K182D).
T6 construct: expressed in transfected cells; host or cells: HEK293
Description: Patch clamp, HEK293, mutant α1β2 GABAAR. To be noted: HEK293, read-out: Glutamate potentiation of GABA currents, % of control, normalized to wild-type α1β2. The procedure: as §4, §1, §2, §3

The target in the next assay is T7, α1/β3/γ2 GABAAR (Rattus norvegicus, UniProt P62813+P63079).
T7 construct: expressed in transfected cells; host or cells: HEK293
The assay is described as follows: Patch clamp, HEK293, β3-containing GABAAR. Particulars: wild-type α1/β3/γ2.

In a further assay the target is T8, α2/β2/γ2 GABAARs (Rattus norvegicus, UniProt P23576+P63138).
T8 construct: expressed in transfected cells; host or cells: HEK293
Description: Patch clamp, HEK293, α2-containing GABAAR. Particulars: wild-type α2/β2/γ2.

In a further assay the target is T9, α1^E208A β2 γ2 GABAAR (Rattus norvegicus, UniProt P62813+P63138, E235A).
T9 construct: expressed in transfected cells; host or cells: HEK293
The assay is described as follows: Patch clamp, HEK293, mutant GABAAR. To be noted: glutamate 100 μM co-applied with GABA 1 μM; normalized to wild-type α1β2γ2. The procedure:
(§5) To positively confirm one of these two putative binding sites involved in glutamate binding, we performed a systemic mutational analysis of critical amino acids around these two sites followed by electrophysiological characterizations of their impacts on glutamate potentiation in HEK293 cells expressing wild-type or mutated α1β2γ2 GABAARs (Table 1).
as §1, §2, §3

Another assay deals with T10, α1^S158A β2 γ2 GABAAR (Rattus norvegicus, UniProt P62813+P63138, S185A).
T10 construct: expressed in transfected cells; host or cells: HEK293
Description: Patch clamp, HEK293, mutant GABAAR. To be noted: glutamate 100 μM co-applied with GABA 1 μM; normalized to wild-type α1β2γ2. The procedure:
as §5, §1, §2, §3

The target in the next assay is T11, α1 β2^V177A γ2 GABAAR (Rattus norvegicus, UniProt P62813+P63138, V202A).
T11 construct: expressed in transfected cells; host or cells: HEK293
Description: Patch clamp, HEK293, mutant GABAAR. To be noted: glutamate 100 μM co-applied with GABA 1 μM; normalized to wild-type α1β2γ2. The procedure:
as §5, §1, §2, §3

For the next assay, the target named is T12, α1^F99A β2 γ2 GABAAR (Rattus norvegicus, UniProt P62813+P63138, F126A).
T12 construct: expressed in transfected cells; host or cells: HEK293
The assay is described as follows: Patch clamp, HEK293, mutant GABAAR. Particulars: glutamate 100 μM co-applied with GABA 1 μM; normalized to wild-type α1β2γ2. The procedure: as §5, §1, §2, §3

Another assay has as its target T13, α1^S205A β2 γ2 GABAAR (Rattus norvegicus, UniProt P62813+P63138, S232A).
T13 construct: expressed in transfected cells; host or cells: HEK293
The assay is described as follows: Patch clamp, HEK293, mutant GABAAR. To be noted: glutamate 100 μM co-applied with GABA 1 μM; normalized to wild-type α1β2γ2. The procedure:
as §5, §1, §2, §3

Another assay deals with T14, α1 β2 ^I180A γ2 GABAAR (Rattus norvegicus, UniProt P62813+P63138, I205A).
T14 construct: expressed in transfected cells; host or cells: HEK293
The assay is described as follows: Patch clamp, HEK293, mutant GABAAR. To be noted: glutamate 100 μM co-applied with GABA 1 μM; normalized to wild-type α1β2γ2. The procedure: as §5, §1, §2, §3

The next assay deals with T15, α1^Y159A β2 γ2 GABAAR (Rattus norvegicus, UniProt P62813+P63138, Y186A).
T15 construct: expressed in transfected cells; host or cells: HEK293
The assay is described as follows: Patch clamp, HEK293, mutant GABAAR. Particulars: glutamate 100 μM co-applied with GABA 1 μM; normalized to wild-type α1β2γ2. How it is done: as §5, §1, §2, §3

In a further assay the target is T16, α1^T206A β2 γ2 GABAAR (Rattus norvegicus, UniProt P62813+P63138, T233A).
T16 construct: expressed in transfected cells; host or cells: HEK293
The assay is described as follows: Patch clamp, HEK293, mutant GABAAR. Particulars: glutamate 100 μM co-applied with GABA 1 μM; normalized to wild-type α1β2γ2. The procedure: as §5, §1, §2, §3

T1 sequence (P62813 28-455): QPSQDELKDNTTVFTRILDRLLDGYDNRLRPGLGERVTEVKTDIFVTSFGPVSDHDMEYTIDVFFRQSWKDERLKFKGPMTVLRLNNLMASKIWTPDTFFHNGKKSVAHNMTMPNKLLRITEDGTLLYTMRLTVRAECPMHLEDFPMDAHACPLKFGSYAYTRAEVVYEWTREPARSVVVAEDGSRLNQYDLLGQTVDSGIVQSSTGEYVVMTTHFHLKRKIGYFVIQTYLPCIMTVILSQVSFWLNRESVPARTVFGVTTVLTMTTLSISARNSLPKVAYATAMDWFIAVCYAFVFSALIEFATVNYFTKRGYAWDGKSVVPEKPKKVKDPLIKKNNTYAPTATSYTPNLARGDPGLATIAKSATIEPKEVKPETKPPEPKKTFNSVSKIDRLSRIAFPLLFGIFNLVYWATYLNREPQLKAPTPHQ
T1 sequence (P63138 26-474): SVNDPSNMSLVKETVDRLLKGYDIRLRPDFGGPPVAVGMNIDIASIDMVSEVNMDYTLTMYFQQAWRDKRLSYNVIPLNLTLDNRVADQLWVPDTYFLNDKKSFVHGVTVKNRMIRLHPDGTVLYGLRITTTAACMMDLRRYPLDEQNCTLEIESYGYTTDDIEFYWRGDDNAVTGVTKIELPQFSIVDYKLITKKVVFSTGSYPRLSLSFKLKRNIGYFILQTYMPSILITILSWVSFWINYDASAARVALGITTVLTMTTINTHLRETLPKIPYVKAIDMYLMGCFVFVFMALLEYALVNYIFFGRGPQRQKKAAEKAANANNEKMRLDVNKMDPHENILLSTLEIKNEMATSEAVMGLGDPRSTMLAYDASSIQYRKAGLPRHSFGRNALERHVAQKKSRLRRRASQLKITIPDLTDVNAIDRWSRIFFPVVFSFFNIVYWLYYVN
T1 sequence (P18508 39-466 R235E): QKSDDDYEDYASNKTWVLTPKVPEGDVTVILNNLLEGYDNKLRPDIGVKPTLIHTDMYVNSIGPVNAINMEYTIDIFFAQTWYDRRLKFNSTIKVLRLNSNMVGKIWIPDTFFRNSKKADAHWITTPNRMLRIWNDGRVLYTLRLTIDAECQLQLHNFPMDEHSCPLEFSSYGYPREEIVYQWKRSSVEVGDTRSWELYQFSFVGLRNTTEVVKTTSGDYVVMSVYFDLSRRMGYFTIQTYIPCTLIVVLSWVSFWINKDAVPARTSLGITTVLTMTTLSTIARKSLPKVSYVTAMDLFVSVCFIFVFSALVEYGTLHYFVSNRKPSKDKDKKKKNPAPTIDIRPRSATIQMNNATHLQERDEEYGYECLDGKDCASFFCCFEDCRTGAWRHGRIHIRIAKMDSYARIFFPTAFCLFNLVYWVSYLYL
T5 sequence (P62813 28-455 K131D): as the sequence (P62813 28-455) above, with K104D counted along it
T5 sequence (P63138 26-474): as the sequence (P63138 26-474) above
T6 sequence (P62813 28-455 K182D): as the sequence (P62813 28-455) above, with K155D counted along it
T6 sequence (P63138 26-474): as the sequence (P63138 26-474) above
T4 sequence (P62813 28-455 E164G): as the sequence (P62813 28-455) above, with E137G counted along it
T4 sequence (P63138 26-474): as the sequence (P63138 26-474) above
T3 sequence (P62813 28-455): as the sequence (P62813 28-455) above
T3 sequence (P63138 26-474 E206G): as the sequence (P63138 26-474) above, with E181G counted along it
T2 sequence (P62813 28-455): as the sequence (P62813 28-455) above
T2 sequence (P63138 26-474): as the sequence (P63138 26-474) above
T2 sequence (P18508 39-466 partner): as the sequence (P18508 39-466 R235E) above, with E197R counted along it
T10 sequence (P62813 28-455 S185A): as the sequence (P62813 28-455) above, with S158A counted along it
T10 sequence (P63138 26-474): as the sequence (P63138 26-474) above
T10 sequence (P18508 39-466 partner): as the sequence (P18508 39-466 R235E) above, with E197R counted along it
T13 sequence (P62813 28-455 S232A): as the sequence (P62813 28-455) above, with S205A counted along it
T13 sequence (P63138 26-474): as the sequence (P63138 26-474) above
T13 sequence (P18508 39-466 partner): as the sequence (P18508 39-466 R235E) above, with E197R counted along it
T16 sequence (P62813 28-455 T233A): as the sequence (P62813 28-455) above, with T206A counted along it
T16 sequence (P63138 26-474): as the sequence (P63138 26-474) above
T16 sequence (P18508 39-466 partner): as the sequence (P18508 39-466 R235E) above, with E197R counted along it
T9 sequence (P62813 28-455 E235A): as the sequence (P62813 28-455) above, with E208A counted along it
T9 sequence (P63138 26-474): as the sequence (P63138 26-474) above
T9 sequence (P18508 39-466 partner): as the sequence (P18508 39-466 R235E) above, with E197R counted along it
T15 sequence (P62813 28-455 Y186A): as the sequence (P62813 28-455) above, with Y159A counted along it
T15 sequence (P63138 26-474): as the sequence (P63138 26-474) above
T15 sequence (P18508 39-466 partner): as the sequence (P18508 39-466 R235E) above, with E197R counted along it
T8 sequence (P23576 29-451): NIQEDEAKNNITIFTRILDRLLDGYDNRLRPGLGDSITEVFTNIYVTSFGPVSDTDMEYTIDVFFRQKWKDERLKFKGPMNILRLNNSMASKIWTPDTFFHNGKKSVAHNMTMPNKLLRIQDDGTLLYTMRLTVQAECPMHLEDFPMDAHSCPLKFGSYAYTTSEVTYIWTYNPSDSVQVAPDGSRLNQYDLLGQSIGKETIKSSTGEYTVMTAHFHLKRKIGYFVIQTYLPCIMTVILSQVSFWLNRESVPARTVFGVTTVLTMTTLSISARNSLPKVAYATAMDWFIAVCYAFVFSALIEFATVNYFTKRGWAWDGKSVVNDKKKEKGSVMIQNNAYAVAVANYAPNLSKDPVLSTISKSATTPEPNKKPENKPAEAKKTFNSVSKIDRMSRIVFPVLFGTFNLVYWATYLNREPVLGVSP
T8 sequence (P63138 26-474): as the sequence (P63138 26-474) above
T8 sequence (P18508 39-466 partner): as the sequence (P18508 39-466 R235E) above, with E197R counted along it
T12 sequence (P62813 28-455 F126A): as the sequence (P62813 28-455) above, with F99A counted along it
T12 sequence (P63138 26-474): as the sequence (P63138 26-474) above
T12 sequence (P18508 39-466 partner): as the sequence (P18508 39-466 R235E) above, with E197R counted along it
T14 sequence (P62813 28-455): as the sequence (P62813 28-455) above
T14 sequence (P63138 26-474 I205A): as the sequence (P63138 26-474) above, with I180A counted along it
T14 sequence (P18508 39-466 partner): as the sequence (P18508 39-466 R235E) above, with E197R counted along it
T7 sequence (P62813 28-455): as the sequence (P62813 28-455) above
T7 sequence (P63079 26-473): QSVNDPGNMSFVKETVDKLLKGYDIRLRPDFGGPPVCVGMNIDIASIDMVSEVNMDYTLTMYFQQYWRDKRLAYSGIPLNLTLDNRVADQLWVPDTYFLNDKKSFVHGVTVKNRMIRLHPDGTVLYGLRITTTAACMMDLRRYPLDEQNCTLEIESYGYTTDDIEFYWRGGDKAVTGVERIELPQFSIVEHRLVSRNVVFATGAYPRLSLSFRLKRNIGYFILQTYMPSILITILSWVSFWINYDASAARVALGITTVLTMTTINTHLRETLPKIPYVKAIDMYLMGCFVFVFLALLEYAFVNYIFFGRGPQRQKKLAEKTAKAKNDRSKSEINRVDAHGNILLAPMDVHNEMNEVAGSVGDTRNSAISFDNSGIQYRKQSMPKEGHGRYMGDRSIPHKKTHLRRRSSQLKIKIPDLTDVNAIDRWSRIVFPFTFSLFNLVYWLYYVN
T7 sequence (P18508 39-466 partner): as the sequence (P18508 39-466 R235E) above, with E197R counted along it
T11 sequence (P62813 28-455): as the sequence (P62813 28-455) above
T11 sequence (P63138 26-474 V202A): as the sequence (P63138 26-474) above, with V177A counted along it
T11 sequence (P18508 39-466 partner): as the sequence (P18508 39-466 R235E) above, with E197R counted along it

`N[C@@H](CCC(=O)O)C(=O)O` [glutamate, Glutamate]: the figures for the “Glu-induced potentiation, % of wild-type α1β2” value on α1β2γ2R197E GABAAR (Glu 100 μM) and on α1β2γ2R197E GABAAR (Glu 1 mM) were 92.7 ± 22.0% and 82.4 ± 16.9%, respectively. The “Glu-induced potentiation, % of wild-type α1β2γ2” value on α1β2γ2R197E GABAAR (Glu 100 μM) is listed as 204.9 ± 48.7%; at α1β2γ2R197E GABAAR (Glu 1 mM), 190.9 ± 39.2%. The “GABA currents in presence of ligand, compared with GABA alone” value on rat α1β2γ2 GABAARs is reported as 169.3 ± 6.9%. Besides, the Relative potentiation was found to be 100.0% on rat α1β2γ2 GABAARs; 90.9 ± 28.7% at α1^E208A β2 γ2 GABAAR; 106.9 ± 39.8% on α1^S158A β2 γ2 GABAAR; 89.5 ± 28.3% at α1 β2^V177A γ2 GABAAR; 96.4 ± 23.0% on α1^F99A β2 γ2 GABAAR; 113.1 ± 33.0% on α1^S205A β2 γ2 GABAAR. The Relative potentiation is given as 18.8 ± 12.9% at α1 β2 ^I180A γ2 GABAAR, 90.8 ± 26.7% on α1^Y159A β2 γ2 GABAAR and 129.3 ± 61.7% at α1^T206A β2 γ2 GABAAR. The activity at 100 µM at αβE181G GABAAR (Glu 100 μM) worked out at 51.2 ± 9.5%; on αE137Gβ GABAAR (Glu 100 μM), 109 ± 30.2%; on αK104Dβ GABAAR (Glu 100 μM) it was 48.8 ± 9.5%; on αK155Dβ GABAAR (Glu 100 μM) it was 76.3 ± 10.5%. Further, the activity at 1000 µM on αβE181G GABAAR (Glu 1 mM) worked out at 50.6 ± 8.4%; on αE137Gβ GABAAR (Glu 1 mM) it was 88.4 ± 5.9%; at αK104Dβ GABAAR (Glu 1 mM), 94.7 ± 20.7%; on αK155Dβ GABAAR (Glu 1 mM) it was 90.1 ± 11.3%. Also, the “potentiation of GABA-induced currents by glutamate” value at α1/β3/γ2 GABAAR is “could also potentiate GABA-induced currents”. Besides, the “potentiation of GABA currents by glutamate” value on α2/β2/γ2 GABAARs is listed as “capable of potentiating GABA currents”.
